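Values below derive from 48-hour exposures of cells grown in 96-well plates, with endpoints linearly interpolated between the two concentrations bracketing the appropriate inhibition level. TGI is the concentration that stops growth completely.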
Assays:
Test in all cases: DTP human tumour cell line panel, 48 h
[1] = tested on: SNB-19 CNS
[2] = tested on: TK-10 renal
[3] = tested on: RXF 393 renal
[4] = tested on: COLO 205 colon
[5] = tested on: MOLT-4 leukemia
[6] = tested on: HCC-2998 colon
[7] = tested on: OVCAR-4 ovarian
[8] = tested on: HCT-15 colon
[9] = tested on: M14 melanoma
[10] = tested on: OVCAR-5 ovarian
[11] = tested on: UO-31 renal
[12] = tested on: KM12 colon
[13] = tested on: CAKI-1 renal
[14] = tested on: DMS 273 small cell lung
[15] = tested on: SF-539 CNS
[16] = tested on: SK-MEL-5 melanoma
[17] = tested on: SK-MEL-2 melanoma
[18] = tested on: SNB-78 CNS
[19] = tested on: HOP-92 NSCLC
[20] = tested on: UACC-62 melanoma
[21] = tested on: SW-620 colon
[22] = tested on: HCT-116 colon
[23] = tested on: HOP-62 NSCLC
[24] = tested on: NCI-H460 lung
[25] = tested on: A549 NSCLC
[26] = tested on: K-562 leukemia
[27] = tested on: U251 CNS
[28] = tested on: SK-MEL-28 melanoma
[29] = tested on: DMS 114 small cell lung
[30] = tested on: DLD-1 colon
[31] = tested on: CCRF-CEM leukemia
[32] = tested on: XF 498 CNS
[33] = tested on: SR leukemia
[34] = tested on: HL-60(TB) leukemia
[35] = tested on: SK-OV-3 ovarian
[36] = tested on: 786-0 renal
[37] = tested on: IGROV1 ovarian
[38] = tested on: NCI-H522 lung
[39] = tested on: NCI-H226 lung
[40] = tested on: SNB-75 CNS
[41] = tested on: ACHN renal
[42] = tested on: NCI-H23 lung
[43] = tested on: EKVX NSCLC
[44] = tested on: UACC-257 melanoma
[45] = tested on: SN12C renal
[46] = tested on: HOP-18 NSCLC
[47] = tested on: LXFL 529 NSCLC
[48] = tested on: M19-MEL melanoma
[49] = tested on: RPMI-8226 leukemia
[50] = tested on: OVCAR-8 ovarian
[51] = tested on: SF-295 CNS
[52] = tested on: SF-268 CNS
[53] = tested on: KM20L2 colon
[54] = tested on: HT29 colon
[55] = tested on: A498 renal
[56] = tested on: MALME-3M melanoma
[57] = tested on: RXF-631 renal
[58] = tested on: LOX IMVI melanoma
[59] = tested on: OVCAR-3 ovarian

Measured: TGI

COc1ccc([C@@H]2CC(=O)NCCCNCCCCNCCCN2)cc1
> 100 µM: [1] | [2] | [3] | [4] | [5] | [6] | [7] | [8] | [9] | [10] | [11] | [12] | [13] | [14] | [15] | [16] | [17] | [18] | [19] | [20] | [21] | [22] | [23] | [24] | [25] | [26] | [27] | [28] | [29] | [30] | [31] | [32] | [33] | [34] | [35] | [36] | [37] | [38] | [39] | [40] | [41] | [42] | [43] | [44] | [45] | [46] | [47] | [48] | [49] | [50] | [51] | [52] | [53] | [54] | [55] | [56]

CN(C)CCNC(=O)c1cccc2ccc(-c3cccnc3)nc12
19.5 µM: [3]
13.6 µM: [4]
23.7 µM: [15] | [40]
60.4 µM: [30]
19.2 µM: [23]
7.05 µM: [2]
32.3 µM: [25]
24.1 µM: [51]
23.2 µM: [41]
21.4 µM: [17]
18.6 µM: [29]
12.9 µM: [16]
72.4 µM: [18]
23.1 µM: [57] | [45]
27.5 µM: [21]
62.9 µM: [46]
36.9 µM: [7] | [35] | [59]
20.7 µM: [9]
18 µM: [6]
22.6 µM: [1]
14.8 µM: [20]
13.1 µM: [14] | [22]
8.22 µM: [55]
17.4 µM: [8]
9.71 µM: [11]
22.4 µM: [10]
16.1 µM: [42]
22.2 µM: [39]
24.3 µM: [28]
> 100 µM: [5] | [24] | [26] | [31] | [34] | [36] | [50]
26.3 µM: [52]
98.4 µM: [12]
15.1 µM: [58]
16.8 µM: [56]
25.6 µM: [37]
31.9 µM: [54]
19.8 µM: [43]
32.9 µM: [13]
16.9 µM: [48]
14.4 µM: [19]
15 µM: [44]
19.3 µM: [27]

CN1CCC(C(=O)NNc2ccccc2)CC1
> 33.7 µM: [20]
> 79.7 µM: [48]
98.5 µM: [56]
12.6 µM: [6]
> 31.3 µM: [14]
> 100 µM: [1] | [3] | [5] | [7] | [13] | [18] | [19] | [22] | [24] | [27] | [30] | [31] | [32] | [33] | [34] | [35] | [36] | [37] | [38] | [39] | [40] | [42] | [43] | [59] | [45] | [46] | [49] | [50] | [52] | [54] | [55]
> 41.6 µM: [10]
32.6 µM: [15]
> 89.2 µM: [2] | [44]
> 51.1 µM: [8]
11.3 µM: [58]
45.6 µM: [16]
10.2 µM: [4]
> 46.4 µM: [17]
> 86.8 µM: [25]
> 88.1 µM: [28]
> 33.6 µM: [53]
> 87.2 µM: [29]
> 88.4 µM: [9]
> 63.3 µM: [21]
> 68.9 µM: [41]
> 86.1 µM: [23]
5.69 µM: [47]
> 77.8 µM: [12]
24.4 µM: [11]
33 µM: [51]

Cc1nc2nn(Cc3ccccc3)cc2c(=O)o1
> 100 µM: [1] | [57] | [2] | [3] | [4] | [5] | [6] | [8] | [10] | [11] | [12] | [14] | [15] | [16] | [17] | [18] | [20] | [21] | [22] | [23] | [24] | [25] | [26] | [27] | [29] | [58] | [30] | [31] | [32] | [34] | [36] | [37] | [39] | [40] | [41] | [43] | [44] | [59] | [45] | [47] | [48] | [49] | [50] | [51] | [52] | [53] | [54] | [55] | [56]

Source: PubChem BioAssay (NCI)
